Source: the METLIN SMRT retention time set (Domingo-Almenara et al. 2019)

Test: gradient 5% acetonitrile 3 min, to 50% in 2 min, to 85% in 15 min, held 3 min, 100 µL/min
Details: column: Zorbax Extend-C18 2.1 x 50 mm; eluents: water / acetonitrile, 0.1% formic acid
Method in brief: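 Pure standards were run in mixtures of ~100 molecules by HPLC coupled to a quadrupole time-of-flight mass spectrometer. The column was a Zorbax Extend-C18 (2.1 × 50 mm, 1.8 μm) at 100 μL/min, with water and acetonitrile each containing 0.1% formic acid, in positive and negative ionization mode. Dead and dwell volumes were 40 μL and 900 μL. Retention time was taken from computationally picked adduct peaks, each manually inspected, with data collected over 3 months.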

RP-LC retention time [s] | SMILES
675 | Cc1ccc(-n2nc3c(N4CCN(C(=O)NC(C)C)CC4)nnc(C)c3c2C)cc1
1080 | Cc1ccc(Sc2nccnc2N2CCCC(C(=O)NCc3ccc(C)o3)C2)cc1 (stereo not given)
602 | O=c1ccc(S(=O)(=O)N2CCCC2)cn1Cc1ccccc1
1170 | CCOc1ccccc1CNC(=O)C1CCN(c2nccnc2Sc2cccc(C)c2)CC1
962 | Cc1cccc(C(=O)Nc2nc(-c3ccc4c(c3)NC(=O)C(C)O4)cs2)c1 (stereo not given)
554 | COc1cccc(NC(=O)N2CCc3nc[nH]c3C2)c1
747 | CCOc1ccc(S(=O)(=O)N2CCCC(C(N)=O)C2)cc1C (stereo not given)
904 | Cc1ccc(-c2nc3ccc(Cl)cn3c2Nc2ccccc2C)cc1
568 | Nc1ccc(-c2nc3ccc(-c4nc5ccc(N)cc5[nH]4)cc3[nH]2)cc1
781 | CCc1nnc(-c2ccc3ccn(CC(=O)NCCc4cccs4)c3c2)o1
850 | O=C(NCc1ccccc1)C1c2ccccc2CC(=O)N1Cc1ccccc1 (stereo not given)
1040 | CCOC(=O)c1cccc(Nc2c(-c3ccc(Br)cc3)nc3cnccn23)c1
989 | CSc1cccc(NC(=O)N2CCCC(C)(C(=O)NCc3ccc(C)cc3)C2)c1 (stereo not given)
1000 | O=S(=O)(CCCOc1ccc2c(c1)OCO2)NCCC1=CCCCC1
946 | CCCCOc1ccc(NC(=O)c2oc3cc(C)ccc3c2C)c2cccnc12
669 | O=C(CSc1ccc(N2CCOCC2)nn1)Nc1ccc(F)cc1F
629 | Cc1cc(OCC(=O)NCCN(C)C)cc(C)c1Cl
793 | CC(C)n1cnc2ccc(-c3noc(-c4ccccc4)n3)cc21
905 | CCc1ccc(NC(=O)NC2CCN(c3ccc(F)c(C)c3)C2=O)cc1 (stereo not given)
757 | Cc1nnc(N2CCCC(C(=O)NCc3cccc(F)c3)C2)c2nn(-c3ccc(Cl)cc3)c(C)c12 (stereo not given)
599 | O=C(N[C@@H]1CN(Cc2cc(F)c(F)cc2F)C[C@H]1CO)C1CCC1
893 | CCCn1cc(CCNS(=O)(=O)c2ccc(F)c(C)c2)c2cccnc21
1040 | Cc1ccc(N2CC(c3noc(-c4sccc4C)n3)CC2=O)cc1 (stereo not given)

RP-LC retention time [s] | SMILES
576 | O=C(Cc1ccc(NC(=O)C2COc3ccccc3O2)cc1)NCC(F)(F)F (stereo not given)
856 | COc1ccc(Cl)cc1NC(=O)CSc1nc2nc(C)cc(C)n2n1
775 | CCc1cccc(C)c1NC(=O)C1CCCN(c2nnc(C)c3c(C)n(-c4ccccc4)nc23)C1 (stereo not given)
827 | COc1cccc(N2CCN(c3ccnc(SCC(=O)Nc4cccc(Cl)c4)n3)CC2)c1
937 | O=C(Nc1ccccc1F)N1CCCC1c1nc(-c2ccc(F)cc2F)no1 (stereo not given)
768 | Cc1c(CC(=O)N2CCC(C(N)=O)CC2)c(=O)oc2cc3occ(-c4ccc(F)cc4)c3cc12
894 | Cc1sc2ncn3c(=O)n(CC(=O)N4CCc5ccccc5C4)nc3c2c1C
1150 | CCc1sc(NC(=O)Cc2c(F)cccc2Cl)nc1-c1ccccc1
587 | Cc1ccc(CS(=O)Cc2ccc(C(=O)NCCN(C)C)o2)cc1 (stereo not given)
603 | CC(C)(C)C(=O)Nc1ccc2nc(N3CCN(CC(=O)N4CCCCCC4)CC3)cc(C(=O)O)c2c1
598 | CCNc1cc(N2CCC(CCC(=O)NC(C)C)CC2)ncn1
651 | COc1ccc(C2(c3nc(-c4ccc5oc(C)nc5c4)no3)CC2)cc1
1010 | Cc1cccc(-c2nc(C3CCN(C(=O)C(NC(=O)c4ccco4)C(C)C)CC3)no2)c1 (stereo not given)
796 | Cc1ccc(NC(=O)N2CC(c3nc(C)no3)C3(CCOCC3)C2)c(Cl)c1 (stereo not given)
720 | COc1ccc(C)cc1NC(=O)N1CCC(c2cc(N)on2)CC1
706 | CCCNC(=O)c1cn(-c2cc(-c3nc(C)no3)ccn2)cn1
825 | O=C(Cn1c(=O)c(CCC(=O)NC2CCCC2)nc2ccccc21)Nc1ccc(F)c(F)c1
837 | CCn1c(=O)c2cc(C(=O)Nc3ccc(OC)c(OC)c3)nn2c2ccccc21
878 | O=C(NC1CC1)C1CCN(S(=O)(=O)c2cc(-c3noc(C4CCC4)n3)cs2)CC1
1150 | CCOC(=O)c1noc2ncnc(N3CCN(c4cccc(Cl)c4)CC3)c12
919 | CCN(CC)c1nc2ccsc2c(=O)n1CCC(=O)N1CCN(c2ccccc2)CC1
1110 | COC(=O)c1ccc2c(=O)n(CCc3ccccc3)c(N3CCSC3)nc2c1
741 | Cc1ccc(NS(=O)(=O)c2cc(-c3[nH]ncc3C(=O)N3CCCC3)oc2C)c(Cl)c1

RP-LC retention time [s] | SMILES
923 | O=S(=O)(c1cccc(F)c1)N1CC(n2cc(COc3ccc(F)cc3)nn2)C1
1020 | C=CCNC(=O)c1c(O)c2cccnc2n(-c2ccc(OC)cc2)c1=O
969 | Cc1c(C(=O)NCC(C)C)cnn1-c1cc(-c2nc(C3CC3)no2)ccn1
976 | CCc1nc(-c2csc(S(=O)(=O)N3CCCC(C(=O)NCc4ccc(F)cc4)C3)c2)no1 (stereo not given)
780 | CCn1c(-c2cccc(C(=O)NC3CCCCC3)c2)nc2cccnc21
885 | O=C(CN1CCN(Cc2cccc(Cl)c2)C1=O)N1CCN(c2ccccc2)CC1
1140 | CC(C)c1ccc(-c2ccc(=O)n(CCc3nc(-c4ccc5c(c4)OCO5)no3)n2)cc1
815 | Cc1onc(-c2ccccc2Cl)c1C(=O)NC1C(=O)N2C1SC(C)(C)C2C(=O)O (stereo not given)
810 | Cc1cc(C)nc(-n2nc(C)c3c2N(C)C(=O)CC3c2ccccc2Cl)n1 (stereo not given)
758 | Cc1cccc(N2CCN(S(=O)(=O)c3cc4n(c3)CCCNC4=O)CC2)c1
910 | CCOC(=O)N1CCN(c2ncc(S(=O)(=O)c3ccc(Cl)cc3)c(N)n2)CC1
638 | CCCNC(=O)CC1=C2CCCCC2N(C)C1=O (stereo not given)
510 | COCC1CN(Cc2cccc3[nH]ccc23)CC12CCNCC2 (stereo not given)
788 | Cc1ccc(-c2nc3ccc(C)cn3c2Nc2ccccc2C)cc1
838 | COC(=O)c1[nH]c2c(c1C)C(=O)CC(c1cccc(OC)c1)C2 (stereo not given)
676 | Clc1cccc(-c2nc(-c3ccc4c(c3)ncn4CCN3CCOCC3)no2)c1
746 | O=C(Cc1nnc(-c2cccc(F)c2)o1)NC1CCCC1
891 | CCOC(=O)N1CCN(c2ncc(S(=O)(=O)c3ccc(C)c(C)c3)c(N)n2)CC1
767 | CC(C)OCCCNC(=O)c1ccc2c(c1)CCCN2S(C)(=O)=O
565 | Cc1ccc2nc(C(=O)NCc3ccc(N(C)C)cc3)cn2c1
766 | CCc1nc(NCc2ccc3c(c2)OCO3)ncc1C(=O)O
887 | COc1ccc(Cc2nc3nccc(-c4cccc(OC)c4)n3n2)cc1
698 | Cc1ccc(NC(=O)Cc2nnc(-c3cnccn3)o2)cc1

RP-LC retention time [s] | SMILES
652 | C[C@@H](NC(=O)c1cccc(Cl)c1)C(=O)NCc1cscn1
666 | Cc1cc(NC(=O)CN2CCc3[nH]c4c(C)ccc(C)c4c(=O)c3C2)ccc1F
554 | OC1(c2ccccn2)CCOC2(CCN(Cc3cccc(F)c3)CC2)C1 (stereo not given)
1100 | CCCn1cc(C2=CCN(S(=O)(=O)Cc3ccc(Cl)cc3)CC2)c2cccnc21
1040 | Fc1ccc(-n2cc(-c3noc(-c4ccccc4)n3)nn2)cc1
1090 | Cc1noc(-c2cccn2Cc2ccc(Cl)cc2)n1
753 | O=C(Cn1nc(C(=O)N2CCCC2)c2ccccc21)NCc1cccs1
686 | COCCNC(=O)C1CCCN(C(=O)c2cc(C)cc(C)c2)C1 (stereo not given)
922 | COCc1c(C(=O)N2CCCC2Cc2noc(C3CCCC3)n2)noc1C (stereo not given)
686 | CN(C)c1nc2ncn3c(=O)n(CC(=O)NCc4ccccc4Cl)nc3c2s1
631 | Cc1ccc(C)c(NC(=O)Cn2c(N)nc(C)c(C)c2=O)c1
637 | Cc1ccccc1NC(=O)CSc1ccc(N2CCCC(C(=O)NC3CC3)C2)nn1 (stereo not given)
658 | COCCCNC(=O)C1CCCN(c2ccc(=O)n(-c3ccc(OC)cc3)n2)C1 (stereo not given)
725 | Cc1ccc(-c2cc(C(=O)NCCCN3CCC(C)CC3)c(C)[nH]2)cc1C
724 | COc1ccc(CNc2nccn(-c3ccc4c(c3)OCO4)c2=O)cc1OC
775 | COc1ccccc1NC(=O)N1CCC2(CC1)NC(=O)c1ccc(Cl)cc1N2
944 | CCOc1ccc2nc(C(=O)NCc3cccc(Br)c3)cn2n1
826 | O=C(c1cccnc1)N1CCN(c2ccccc2Cl)CC1
828 | Cc1cc(C(=O)N2CC3CN(S(=O)(=O)c4cccc(F)c4)CC(C2)O3)c(C)o1
625 | CCC(=O)N(C1CCOCC1)C1CCN(Cc2cc(F)c(F)c(F)c2)CC1

SMILES | RP-LC retention time [s]
COc1ccc2c(c1)C1(CCN(C(=O)c3ccc(C)c(F)c3)C1)C(=O)N2C (stereo not given) | 610
